# Test results from ChEMBL document CHEMBL4814029, “Design, synthesis, and structure-activity relationship of programmed cell death-1/programmed cell death-ligand 1 interaction inhibitors bearing a benzo[d]isothiazole scaffold” (Eur J Med Chem, 2021).
# Target: Programmed cell death 1 ligand 1 (Homo sapiens, UniProt Q9NZQ7)
# Experiment: Inhibition of PDL1 (unknown origin)
# Settings: not given
# Sequence of Programmed cell death 1 ligand 1 (Q9NZQ7 whole entry): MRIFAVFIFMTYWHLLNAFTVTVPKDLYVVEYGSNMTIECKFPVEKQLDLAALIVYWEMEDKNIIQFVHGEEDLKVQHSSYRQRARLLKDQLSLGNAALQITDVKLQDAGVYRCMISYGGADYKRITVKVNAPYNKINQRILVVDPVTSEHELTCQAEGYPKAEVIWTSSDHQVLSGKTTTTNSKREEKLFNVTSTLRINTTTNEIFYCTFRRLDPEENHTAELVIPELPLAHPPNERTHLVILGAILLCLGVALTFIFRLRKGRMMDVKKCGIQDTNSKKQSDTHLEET
row,SMILES,IC50 [nM]
1,Cc1cc(C(=O)Nc2cccc(-c3ccc4c(c3)OCCO4)c2C)ncc1CN1CCCC[C@H]1C(=O)O,< 10
2,C[C@@H](O)[C@H](NCc1cc(Cl)c(OCc2cccc(-c3ccccc3)c2Br)cc1OCC1CC1)C(=O)O,10.2
3,N#Cc1c(NC(=O)c2nc3c(s2)CNCC3)cccc1-c1ccc2c(c1)OCCO2,< 100
4,N#Cc1cncc(COc2cc(OC3CCc4c(-c5ccccc5)cccc43)c(Cl)cc2CN[C@@H](CO)C(=O)O)c1 (stereo partly drawn),< 100

# Target: Programmed cell death protein 1/Programmed cell death 1 ligand 1 (Homo sapiens, UniProt Q15116+Q9NZQ7)
# Sequence (Q15116 whole entry): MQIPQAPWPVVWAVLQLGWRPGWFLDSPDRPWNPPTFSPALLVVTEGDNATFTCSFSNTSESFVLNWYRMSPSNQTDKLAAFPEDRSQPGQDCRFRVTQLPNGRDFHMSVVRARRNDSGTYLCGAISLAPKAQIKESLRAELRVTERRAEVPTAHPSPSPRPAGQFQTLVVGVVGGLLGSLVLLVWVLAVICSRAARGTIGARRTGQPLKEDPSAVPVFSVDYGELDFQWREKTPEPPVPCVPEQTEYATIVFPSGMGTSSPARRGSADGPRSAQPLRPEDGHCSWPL
# Sequence (Q9NZQ7 whole entry): as the sequence (Q9NZQ7 whole entry) above
# Experiment: Inhibition of Tag2-PD-1/Tag1-PDL-1 (unknown origin) interaction incubated for 15 mins by TR-FRET assay
# Format: protein-complex assay
# Settings: not given
row,SMILES,IC50 [nM]
1,O=C(O)[C@@H]1C[C@@H](O)CN1Cc1ccc2c(Nc3cccc(-c4ccc5c(c4)OCCO5)c3Cl)nsc2c1,17.7
2,C[C@@H](NCc1ccc2c(Nc3cccc(-c4ccc5c(c4)OCCO5)c3Cl)nsc2c1)C(=O)O,43.4
3,OCC(CO)NCc1ccc2c(Nc3cccc(-c4ccc5c(c4)OCCO5)c3Cl)nsc2c1,58.3
4,O=C(O)[C@H](CO)NCc1ccc2c(Nc3cccc(-c4cccc5c4CCN5CCCN4CCC(O)C4)c3Cl)nsc2c1 (stereo partly drawn),231
5,O=C(O)[C@H](CO)NCc1ccc2c(Nc3cccc(-c4ccc5nccnc5c4)c3Cl)nsc2c1,> 1000
6,CC(C)[C@H](NCc1ccc2c(Nc3cccc(-c4ccc5c(c4)OCCO5)c3Cl)nsc2c1)C(=O)O,73.7
7,O=C(O)C1CCN(Cc2ccc3c(Nc4cccc(-c5ccc6c(c5)OCCO6)c4Cl)nsc3c2)CC1,60.1
8,O=C(O)[C@H](CO)NCc1ccc2c(Nc3cccc(-c4ccc5c(c4)OCCO5)c3)nsc2c1,> 1000
9,O=C(O)[C@H](CO)NCc1ccc2c(Nc3cccc(-c4ccc5c(c4)OCCO5)c3F)nsc2c1,486
10,O=C(O)[C@H](CO)NCc1ccc2c(Nc3cccc(-c4ccccc4)c3Cl)nsc2c1,40.3
11,O=C(O)C1CN(Cc2ccc3c(Nc4cccc(-c5ccc6c(c5)OCCO6)c4Cl)nsc3c2)C1,72.6
12,OC1CCCN(Cc2ccc3snc(Nc4cccc(-c5ccc6c(c5)OCCO6)c4Cl)c3c2)C1 (racemic),327
13,O=C(O)C1CCN(Cc2ccc3c(Nc4cccc(-c5ccc6c(c5)OCCO6)c4Cl)nsc3c2)C1 (racemic),73.3
14,O=C(O)[C@H](CO)NCc1ccc2c(Nc3cccc(-c4ccc5c(c4)OCCO5)c3Cl)nsc2c1,8.5
15,OC1CCCN(Cc2ccc3c(Nc4cccc(-c5ccc6c(c5)OCCO6)c4Cl)nsc3c2)C1 (racemic),164
16,O=C(O)C[C@H](NCc1ccc2c(Nc3cccc(-c4ccc5c(c4)OCCO5)c3Cl)nsc2c1)C(=O)O,474
17,O=C(O)[C@H](CO)NCc1ccc2c(Nc3cccc(-c4cccc(O)c4)c3Cl)nsc2c1,143
18,C[C@H](NCc1ccc2c(Nc3cccc(-c4ccc5c(c4)OCCO5)c3Cl)nsc2c1)C(=O)O,44.4
19,COc1ccc(-c2cccc(Nc3nsc4cc(CN[C@@H](CO)C(=O)O)ccc34)c2Cl)cc1OC,> 1000
20,OC1CCN(Cc2ccc3snc(Nc4cccc(-c5ccc6c(c5)OCCO6)c4Cl)c3c2)C1 (racemic),251

row,SMILES,IC50 [nM]
1,O=C(O)[C@H](CO)NCc1ccc2c(Nc3cccc(-c4ccc5c(c4)OCO5)c3Cl)nsc2c1,34.7
2,O[C@H]1CCN(Cc2ccc3c(Nc4cccc(-c5ccc6c(c5)OCCO6)c4Cl)nsc3c2)C1,109
3,COC[C@H](NCc1ccc2c(Nc3cccc(-c4ccc5c(c4)OCCO5)c3Cl)nsc2c1)C(=O)O,79.1
4,O[C@@H]1CCN(Cc2ccc3c(Nc4cccc(-c5ccc6c(c5)OCCO6)c4Cl)nsc3c2)C1,106
5,O=C(O)[C@@H](CO)NCc1ccc2c(Nc3cccc(-c4ccc5c(c4)OCCO5)c3Cl)nsc2c1,10.8
6,O=C(O)C1CCCN(Cc2ccc3c(Nc4cccc(-c5ccc6c(c5)OCCO6)c4Cl)nsc3c2)C1 (racemic),517
7,OC1CCN(Cc2ccc3snc(Nc4cccc(-c5ccc6c(c5)OCCO6)c4Cl)c3c2)CC1,854
8,O=C(O)C1CCN1Cc1ccc2c(Nc3cccc(-c4ccc5c(c4)OCCO5)c3Cl)nsc2c1 (racemic),131
9,O=C(O)CCCCOc1cccc(-c2cccc(Nc3nsc4cc(CN[C@@H](CO)C(=O)O)ccc34)c2Cl)c1,> 1000
10,O=C(O)CNCc1ccc2c(Nc3cccc(-c4ccc5c(c4)OCCO5)c3Cl)nsc2c1,35.6
11,Cc1c(Nc2nsc3cc(CN[C@@H](CO)C(=O)O)ccc23)cccc1-c1ccc2c(c1)OCCO2,78
12,CC1(O)CCN(Cc2ccc3c(Nc4cccc(-c5ccc6c(c5)OCCO6)c4Cl)nsc3c2)C1 (racemic),98.7
13,CN(CC(=O)O)Cc1ccc2c(Nc3cccc(-c4ccc5c(c4)OCCO5)c3Cl)nsc2c1,147
14,O=C(O)C1CCCN1Cc1ccc2c(Nc3cccc(-c4ccc5c(c4)OCCO5)c3Cl)nsc2c1 (racemic),110
15,OC1CCN(Cc2ccc3c(Nc4cccc(-c5ccc6c(c5)OCCO6)c4Cl)nsc3c2)CC1,158
16,O=C(O)CCCCOc1ccc(-c2cccc(Nc3nsc4cc(CN[C@@H](CO)C(=O)O)ccc34)c2Cl)cc1,> 1000
17,CC1(O)CCN(Cc2ccc3snc(Nc4cccc(-c5ccc6c(c5)OCCO6)c4Cl)c3c2)C1 (racemic),177
18,OC1CCN(Cc2ccc3c(Nc4cccc(-c5ccc6c(c5)OCCO6)c4Cl)nsc3c2)C1 (racemic),58.4
19,COc1c(Nc2nsc3cc(CN[C@@H](CO)C(=O)O)ccc23)cccc1-c1ccc2c(c1)OCCO2,> 1000

# System: not listed separately
# Experiment: Growth inhibition of CHO cells expressing PDL-1/TCRa incubated for 24 hrs by Cell Titer-Glo luminescent cell viability assay
# Format: cell-based, Cricetulus griseus
# Settings: chinese hamster
row,SMILES,GI50 at 24 h [nM]
1,O=C(O)[C@H](CO)NCc1ccc2c(Nc3cccc(-c4ccc5c(c4)OCCO5)c3Cl)nsc2c1,> 30000
2,Cc1c(COc2cc(OCc3cccc(C#N)c3)c(CN3C[C@H](O)C[C@@H]3C(=O)O)cc2Cl)cccc1-c1ccc2c(c1)OCCO2,> 30000

# System: not listed separately
# Experiment: Growth inhibition of CHO cells expressing PDL-1/TCRa measured after 24 hrs co-culturing with human Jurkat cells expressing PD-1/NFAT-Luc in presence of compound by Cell Titer-Glo luminescent cell viability assay
# Format: cell-based, Cricetulus griseus
# Settings: chinese hamster
row,SMILES,GI50 at 24 h [nM]
1,O=C(O)[C@H](CO)NCc1ccc2c(Nc3cccc(-c4ccc5c(c4)OCCO5)c3Cl)nsc2c1,> 30000
2,Cc1c(COc2cc(OCc3cccc(C#N)c3)c(CN3C[C@H](O)C[C@@H]3C(=O)O)cc2Cl)cccc1-c1ccc2c(c1)OCCO2,> 30000

# System: not listed separately
# Experiment: Inhibition of PD-1/PDL-1-mediated immune checkpoint using CHO cells expressing PDL-1/TCRa and human Jurkat cells expressing PD-1/NFAT-Luc assessed as Jurkat T lymphocyte activation measured after 6 hrs by luciferase reporter gene based luminescence assay
# Settings: not given
SMILES,EC50 [nM],inhibition
O=C(O)[C@H](CO)NCc1ccc2c(Nc3cccc(-c4ccc5c(c4)OCCO5)c3Cl)nsc2c1,5600,Dose-Dependent Effect
Cc1c(COc2cc(OCc3cccc(C#N)c3)c(CN3C[C@H](O)C[C@@H]3C(=O)O)cc2Cl)cccc1-c1ccc2c(c1)OCCO2,3100,Dose-Dependent Effect

# System: not listed separately
# Experiment: Inhibition of PD-1/PDL-1-mediated immune checkpoint using CHO cells expressing PDL-1/TCRa and human Jurkat cells expressing PD-1/NFAT-Luc assessed as Jurkat T lymphocyte activation by measuring maximal luminescence value measured after 6 hrs by luciferase reporter gene based luminescence assay
# Settings: not given
row,SMILES,RLU
1,O=C(O)[C@H](CO)NCc1ccc2c(Nc3cccc(-c4ccc5c(c4)OCCO5)c3Cl)nsc2c1,3260
2,Cc1c(COc2cc(OCc3cccc(C#N)c3)c(CN3C[C@H](O)C[C@@H]3C(=O)O)cc2Cl)cccc1-c1ccc2c(c1)OCCO2,2240
